Data published in PubChem BioAssay AID1259407 (Chemical Carcinogenesis Research Information System (CCRIS), 2018).
Active and inactive are the calls of the source. No rule for the calls is given here.

Tested on: CCRIS mutagenicity, Ames/micronucleus/aberration tests
Experiment: CCRIS mutagenicity studies
Description: The CCRIS database contains chemical records with carcinogenicity, mutagenicity, tumor promotion, and tumor inhibition test results. It was developed by the National Cancer Institute (NCI). Data are derived from studies cited in primary journals, current awareness tools, NCI reports, and other sources. Test results have been reviewed by experts in carcinogenesis and mutagenesis.
CCRIS provides historical information from the years 1985 - 2011. It is no longer updated.
This is an archive assay for CCRIS mutagenicity studies.

[1] = Test System: AMES SALMONELLA TYPHIMURIUM, Strain/Indicator: TA100, Metabolic Activation: NONE, Method: PREINCUBATION

Measured: mutagenic call

CNP(=O)(NC)NC
inactive: Test System: AMES SALMONELLA TYPHIMURIUM, Strain/Indicator: TA100, Metabolic Activation: NONE, Method: SUSPENSION inactive; negative | Test System: AMES SALMONELLA TYPHIMURIUM, Strain/Indicator: TA100, Metabolic Activation: RAT, LIVER, S-9, AROCLOR 1254, Method: SUSPENSION inactive; negative

O=[N+]([O-])NC1=NCCN1Cc1ccc(Cl)nc1
active: End Point: In vitro micronucleus, Test System: Human peripheral blood lymphocytes, Metabolic Activation: Rat, Liver, S-9 (10%) active; positive (at highest dose only) | End Point: In vivo chromosomal aberrations, Test System: Bone marrow polychromatic erythrocytes, Species: Rat, Strain/Sex: Wistar, Route: Oral active; positive (structural changes) | End Point: In vivo micronucleus, Test System: Bone marrow polychromatic erythrocytes, Species: Rat, Strain/Sex: Wistar/Male, Route: Oral active; positive (at high dose) | End Point: In vivo micronucleus, Test System: Bone marrow polychromatic erythrocytes, Species: Rat, Strain/Sex: Wistar, Route: Oral active; positive | Test System: Ames Salmonella typhimurium, Strain/Indicator: TA98, Metabolic Activation: None, Method: Preincubation active; positive | Test System: Ames Salmonella typhimurium, Strain/Indicator: TA98, Metabolic Activation: Rat, Liver, S-9 (10%), Aroclor 1254, Method: Preincubation active; positive
inactive: End Point: In vitro micronucleus, Test System: Human lymphocytes, Metabolic Activation: None inactive; negative | End Point: In vitro micronucleus, Test System: Human peripheral blood lymphocytes, Metabolic Activation: None inactive; negative | Test System: Ames Salmonella typhimurium, Strain/Indicator: TA100, Metabolic Activation: None, Method: Preincubation inactive; negative | Test System: Ames Salmonella typhimurium, Strain/Indicator: TA100, Metabolic Activation: Rat, Liver, S-9 (10%), Aroclor 1254, Method: Preincubation inactive; negative

CC1CCCO1 (configuration not stated)
inactive: Test System: AMES SALMONELLA TYPHIMURIUM, Strain/Indicator: TA98, Metabolic Activation: HAMSTER LIVER S-9, AROCLOR 1254, Method: STANDARD PLATE inactive; negative | Test System: AMES SALMONELLA TYPHIMURIUM, Strain/Indicator: TA98, Metabolic Activation: NONE, Method: STANDARD PLATE inactive; negative | Test System: AMES SALMONELLA TYPHIMURIUM, Strain/Indicator: TA98, Metabolic Activation: RAT LIVER S-9, AROCLOR 1254, Method: STANDARD PLATE inactive; negative | Test System: AMES SALMONELLA TYPHIMURIUM, Strain/Indicator: TA100, Metabolic Activation: HAMSTER LIVER S-9, AROCLOR 1254, Method: STANDARD PLATE inactive; negative | Test System: AMES SALMONELLA TYPHIMURIUM, Strain/Indicator: TA100, Metabolic Activation: NONE, Method: STANDARD PLATE inactive; negative | Test System: AMES SALMONELLA TYPHIMURIUM, Strain/Indicator: TA100, Metabolic Activation: RAT LIVER S-9, AROCLOR 1254, Method: STANDARD PLATE inactive; negative | Test System: AMES SALMONELLA TYPHIMURIUM, Strain/Indicator: TA102, Metabolic Activation: HAMSTER LIVER S-9, AROCLOR 1254, Method: STANDARD PLATE inactive; negative | Test System: AMES SALMONELLA TYPHIMURIUM, Strain/Indicator: TA102, Metabolic Activation: NONE, Method: STANDARD PLATE inactive; negative | Test System: AMES SALMONELLA TYPHIMURIUM, Strain/Indicator: TA102, Metabolic Activation: RAT LIVER S-9, AROCLOR 1254, Method: STANDARD PLATE inactive; negative | Test System: AMES SALMONELLA TYPHIMURIUM, Strain/Indicator: TA1535, Metabolic Activation: HAMSTER LIVER S-9, AROCLOR 1254, Method: STANDARD PLATE inactive; negative | Test System: AMES SALMONELLA TYPHIMURIUM, Strain/Indicator: TA1535, Metabolic Activation: NONE, Method: STANDARD PLATE inactive; negative | Test System: AMES SALMONELLA TYPHIMURIUM, Strain/Indicator: TA1535, Metabolic Activation: RAT LIVER S-9, AROCLOR 1254, Method: STANDARD PLATE inactive; negative | Test System: AMES SALMONELLA TYPHIMURIUM, Strain/Indicator: TA1537, Metabolic Activation: HAMSTER LIVER S-9, AROCLOR 1254, Method: STANDARD PLATE inactive; negative | Test System: AMES SALMONELLA TYPHIMURIUM, Strain/Indicator: TA1537, Metabolic Activation: NONE, Method: STANDARD PLATE inactive; negative | Test System: AMES SALMONELLA TYPHIMURIUM, Strain/Indicator: TA1537, Metabolic Activation: RAT LIVER S-9, AROCLOR 1254, Method: STANDARD PLATE inactive; negative | Test System: Mouse lymphoma, Strain/Indicator: L5178Y (tk+/tk-), Metabolic Activation: None, Method: Suspension/plate inactive; negative | Test System: Mouse lymphoma, Strain/Indicator: L5178Y (tk+/tk-), Metabolic Activation: Rat, Liver, S-9, Aroclor 1254, Method: Suspension/plate inactive; inconclusive (previous evaluation negative)

CC1(c2ccc([N+](=O)[O-])cc2)CO1 (configuration not stated)
active: [1] active; positive

Nc1nc2c([nH]c(=O)n2[C@H]2C[C@H](O)[C@@H](CO)O2)c(=O)[nH]1
inactive: [1] inactive; negative

c1ccc2c(c1)cc1ccc3cccc4c5ccccc5c2c1c34
inactive: End Point: In vitro micronucleus, Test System: V79MZ Chinese hamster fibroblasts, Metabolic Activation: None inactive; negative
active: End Point: In vitro micronucleus, Test System: V79MZ-h1A1 Chinese hamster fibroblasts (expressing human CYP1A1), Metabolic Activation: None active; positive | End Point: In vitro micronucleus, Test System: V79MZ-h1B1 Chinese hamster fibroblasts (expressing human CYP1B1), Metabolic Activation: None active; positive | Test System: AMES SALMONELLA TYPHIMURIUM, Strain/Indicator: TA98, Metabolic Activation: RAT, LIVER, S-9, AROCLOR 1254, Method: PREINCUBATION active; positive | Test System: AMES SALMONELLA TYPHIMURIUM, Strain/Indicator: TA100, Metabolic Activation: RAT, LIVER, S-9, AROCLOR 1254, Method: PREINCUBATION active; positive | Test System: CHINESE HAMSTER V-79, Strain/Indicator: V-79 (HPRT)/6-THIOGUANINE, Metabolic Activation: HUMAN MAMMARY CARCINOMA MCF-7 CELLS active; positive
